For data set [1], the system named is adjuvant-induced arthritis (AIA) model. The data set can be described thus: Clinical score analysis in adjuvant-induced arthritis (AIA) model. In kind it is in vivo, Lewis rats. Set-up: Clinical score 9th day / Clinical score 13th day / Clinical score 16th day / Clinical score 11th day / Clinical score 15th day / Clinical score 18th day: scale not given here. The note with it: Table 17 study, compound 10 mg/kg once per day P.O.; for Rate of reduction in clinical scores (%): 18th day vs vehicle; for Clinical score 11th day / Clinical score 15th day / Clinical score 18th day: Mean ± SEM. Here is the method:
(§1) Lewis rats (female, five-weeks old) were purchased from Central Lab Animal, Inc. and kept in a controlled environment with a temperature at 22±2° C., a humidity at 44-56% and a light/dark cycle of 12 hours, while being allowed to have a free access to standard diet and water for one week before an examination. Complete Freund's Adjuvant (Chondrex) containing 10 mg/mL of heat killed mycobacteria toxin was fully mixed together, after which […] thereof was taken and subcutaneously injected into each upper tail of the rats to induce arthritis therefrom.
(§2) To administer a drug of compound 374 (SM374) and evaluate an effect thereof, the rats were divided into 11 groups (9, 10 or 11 animals per group) one day before or nine days after inducing arthritis, after which each group was classified according to administered substances (vehicle, compound 374 (SM374) or methotrexate (MTX)) and administration routes (oral administration (P.O.) or intraperitoneal administration (I.P.)) as shown in a following table 13.
(§3) Also, in order to administer a drug of compounds 374, 413, 484, 530 and 652 (SM374, SM413, SM484, SM530 and SM652) and evaluate an effect thereof, the rats were divided into 13 groups (9 or 10 animals per group) eight days after inducing arthritis, and each group was classified according to administered substances (vehicle, SM374, SM413, SM484, SM530, SM652 and MTX) and administration routes (oral or intraperitoneal administration) as shown in a following table 14.
To identify the efficacy of the inventive composition on preventing or treating arthritis in an AIA model, an analysis was made on the clinical scores of rats dosed with a compound 374 (SM 374, once per day) or MTX (once per week or twice per week) from 9th day to 16th day after inducing arthritis.
Particularly, a degree of swelling, erythema, etc., in each joint of the rats were observed, after which clinical scores were calculated according to a scoring system described in a following table 15, such that the clinical scores on four joints were added up to obtain total scores for each rat (Vishwakarma et al., 2013).
To identify the efficacy of the inventive composition on preventing or treating arthritis in an AIA model, an analysis was made on the clinical scores of rats dosed with compounds 374, 413, 484, 530 and 652 (SM374, SM413, SM484, SM530 and SM652, once per day) or MIX (once per week) from 8th day to 18th day after inducing arthritis.

The nature of data set [2]: Analysis of body weights in AIA model. In kind it is in vivo, Lewis rats. The note with it: Table 19 study; compound 10 mg/kg once per day P.O. On the procedure:
as §1, §2, §3
An analysis was made on the body weight of rats dosed with compound 374 (SM 374, once per day) or MIX (once per week or twice per week) from 9th day to 16th day after inducing AIA. […]

The structures appear in SMILES notation.

Regarding `O=C(NO)c1ccc(CN(C(=O)N2CCOCC2)c2ccc(F)cc2F)cc1` [SM413, N-(2,4-difluorophenyl)-N-(4-(hydroxycarbamoyl)benzyl)morpholine-4-carboxamide], in data set [1], the “Rate of reduction in clinical scores (%)” value is reported as −3.3%, the “Clinical score 11th day” value amounted to 0.0 ± 0.0, the “Clinical score 15th day” value is reported as 3.0 ± 1.4 and the “Clinical score 18th day” value came to 6.3 ± 1.4. For the same compound, in data set [2], the “Body weight (g) 8th day” value is given as 151.3 ± 2.9 g, the “Body weight (g) 11th day” value was determined as 151.4 ± 3.9 g, the “Body weight (g) 15th day” value was determined as 157.4 ± 4.2 g and the “Body weight (g) 18th day” value worked out at 155.2 ± 4.5 g.

Consider `COc1cccc(N(Cc2ccc(C(=O)NO)cc2)C(=O)N2CCOCC2)c1` [SM484, N-(4-(hydroxycarbamoyl)benzyl)-N-(3-methoxyphenyl)morpholine-4-carboxamide], for which, in data set [1], the “Rate of reduction in clinical scores (%)” value was determined as 19.7%, the “Clinical score 11th day” value worked out at 0.0 ± 0.0, the “Clinical score 15th day” value amounted to 2.9 ± 1.3 and the “Clinical score 18th day” value worked out at 4.9 ± 1.7. Further, in data set [2], the “Body weight (g) 8th day” value is 151.4 ± 2.5 g, the “Body weight (g) 11th day” value turned out to be 154.7 ± 2.1 g, the “Body weight (g) 15th day” value came out at 160.7 ± 3.3 g and the “Body weight (g) 18th day” value is 158.3 ± 4.6 g.

For `O=C(NO)c1ccc(CN(C(=O)N2CCOCC2)c2cccc(F)c2)cc1` [SM530], in data set [1], the “Rate of reduction in clinical scores (%)” value amounted to 31.1%, the “Clinical score 11th day” value is recorded as 0.0 ± 0.0, the “Clinical score 15th day” value came to 1.2 ± 0.5 and the “Clinical score 18th day” value is recorded as 4.2 ± 1.6. Also, in data set [2], the “Body weight (g) 8th day” value is recorded as 151.2 ± 2.6 g, the “Body weight (g) 11th day” value worked out at 153.0 ± 2.1 g, the “Body weight (g) 15th day” value is recorded as 161.1 ± 2.1 g and the “Body weight (g) 18th day” value was 159.2 ± 4.5 g.

Take `O=C(NO)c1ccc(CN(C(=O)N2CCCOCC2)c2cccc(F)c2)cc1` [SM652, N-(3-fluorophenyl)-N-(4-(hydroxycarbamoyl)benzyl)-1,4-oxazepane-4-carboxamide]: in data set [1], the “Rate of reduction in clinical scores (%)” value is reported as 19.7%, the “Clinical score 11th day” value stood at 0.0 ± 0.0, the “Clinical score 15th day” value was 1.4 ± 0.9 and the “Clinical score 18th day” value stood at 4.9 ± 1.6. Moreover, in data set [2], the “Body weight (g) 8th day” value worked out at 152.8 ± 2.4 g, the “Body weight (g) 11th day” value came to 157.6 ± 1.9 g, the “Body weight (g) 15th day” value is listed as 158.8 ± 1.6 g and the “Body weight (g) 18th day” value is recorded as 156.8 ± 3.9 g.
